Assays:
[1] = tested on: Mycobacterium tuberculosis; format: cell-based
Streptococcus sanguinis = assay: Spectrum of antibacterial activity of GML; format: cell-based; conditions: optimal growth conditions; 1 strain tested
E. coli (Watson strain) [2] = assay: GML and EDTA on the growth of E. coli; format: cell-based; conditions: 24 hours; EDTA 0.05 M to 0.00005 M; GML 100 μg/mL
Protocol: E. coli (Watson strain) was adjusted to I.2×10^7/mL in Todd Hewitt media. […] Cultures were incubated with shaking (200 RPM) for 24 hours, at which time samples were removed for plate counting. To further assess the combined effects of GML and EDTA, the experiment was carried out as above, and the relative effects on the growth of E. coli of EDTA alone or the combination of GML and EDTA were assessed in direct comparison to GML alone.

Staphylococcus aureus = assay: Spectrum of antibacterial activity of GML; format: cell-based; conditions: optimal growth conditions; 54 strains tested
Clostridium perfringens = format: cell-based; conditions: optimal growth conditions; 1 strain tested
Escherichia coli = assay: Spectrum of antibacterial activity of GML; format: cell-based; conditions: optimal growth conditions; 2 strains tested
[3] = tested on: Bacillus anthracis Sterne; format: cell-based; conditions: optimal growth conditions; 1 strain tested
[4] = tested on: Staphylococcus aureus MNPE (methicillin sensitive) and MW2 (methicillin resistant); assay: GML in vegetable oil, growth in Todd Hewitt broth (CFU/mL); format: cell-based; conditions: both strains; GML in olive, palm or corn oil (all 3); 18 hours, 37° C.
Pseudomonas aeruginosa = assay: Spectrum of antibacterial activity of GML; format: cell-based; conditions: optimal growth conditions; 1 strain tested
Haemophilus influenzae = assay: Effect of pH on GML activity; format: cell-based; conditions: 1 μg/mL GML
Protocol: A similar experiment was carried out to assess the effect of GML on the growth of Haemophilus influenzae at various pHs. 1 μg/mL GML had no effect on the growth of H. influenzae at a pH of 7.0 (FIG. 13).

E. coli (Watson strain) [5] = assay: Effect of pH on GML activity; format: cell-based; conditions: for bactericidal GML concentration: 24 hours
Protocol: An experiment was conducted to determine the effect of GML in the presence of various pH levels on the growth of E. coli. E. coli (Watson strain) was grown in Todd Hewitt media and adjusted to […]. Using acetate buffer, the pH of the cultures was adjusted to 5.0, 6.0, or 7.0. […] Samples were removed for enumeration of CFU/mL at 24 hours.

Group F Streptococcus = assay: Spectrum of antibacterial activity of GML; format: cell-based; conditions: optimal growth conditions; 1 strain tested
Listeria monocytogenes = assay: Spectrum of antibacterial activity of GML; format: cell-based; conditions: optimal growth conditions; 1 strain tested
Mycoplasma hominis = assay: Spectrum of antibacterial activity of GML; format: cell-based; conditions: optimal growth conditions; 1 strain tested
oral aerobic bacteria = assay: Decolonization of teeth and gum lines; format: in vivo, human; conditions: 5% GML gel on teeth and gum lines; thirty minutes after treatment
Source text: Human volunteers were swabbed with a PBS-saturated swab across the teeth and gum lines on the left side of the mouth and tested for CFU/mL of total bacteria subsequently grown on blood agar plates. The same individuals were then swabbed with GML gel by swabbing the gel across the teeth and gum lines on the right side of the mouth. Enough gel was used to coat the entire surface area of the teeth and gum lines. Thirty minutes after treatment, the participants were swabbed with PBS-saturated swabs on the right side and total CFU/mL were determined. […] Bacterial counts on both sides of the teeth and gum lines were presumed to be approximately equal, and a pre-test swab confirmed that this was the case.

Streptococcus agalactiae = assay: GML in vegetable oil, growth in Todd Hewitt broth (CFU/mL); format: cell-based; conditions: GML in olive, palm or corn oil (all 3); 18 hours, 37° C.
[6] = tested on: S. aureus strains MN8, MNWH, MW2; assay: Biofilm formation in 96 well microtiter plates; format: cell-based
[7] = tested on: Peptostreptococcus species; assay: Spectrum of antibacterial activity of GML; format: cell-based; conditions: optimal growth conditions; 1 strain tested
Gardnerella vaginalis [8] = assay: Spectrum of antibacterial activity of GML; format: cell-based; conditions: optimal growth conditions; 2 strains tested
Fusobacterium species = assay: Spectrum of antibacterial activity of GML; format: cell-based; conditions: optimal growth conditions; 1 strain tested
Enterobacter aerogenes = assay: Spectrum of antibacterial activity of GML; format: cell-based; conditions: optimal growth conditions; 1 strain tested
[9] = tested on: non-typable Haemophilus influenzae; format: cell-based
S. aureus (strain MN8) = assay: Effect of non-aqueous gel on antimicrobial activity of GML; format: cell-based; conditions: GML alone in Todd Hewitt broth; 24 hours
Gardnerella vaginalis [10] = assay: GML in vegetable oil, growth in Todd Hewitt broth (CFU/mL); format: cell-based; conditions: GML in olive, 18 hours, 37° C.

Glycerol monolaurate [GML]
Average Bactericidal Concentration of GML [1]: 100 µg/mL | Average Bactericidal Concentration of GML (Streptococcus sanguinis): 50 µg/mL | anti-bacterial activity on growth of E. coli (CFU/mL) (E. coli (Watson strain) [2]): did not exhibit any bactericidal activity | Average Bactericidal Concentration of GML (Staphylococcus aureus): 300 µg/mL | Average Bactericidal Concentration of GML (Clostridium perfringens): 1 µg/mL | Average Bactericidal Concentration of GML (Escherichia coli): Not Susceptible | Average Bactericidal Concentration of GML [3]: 50 µg/mL | GML concentration at which growth was inhibited [4]: 100 µg/mL | Average Bactericidal Concentration of GML (Pseudomonas aeruginosa): Not Susceptible | effect on growth (CFU/mL) (Haemophilus influenzae; pH 6.0, 4, 8, and 24 hours): completely abrogated the growth | effect on growth (CFU/mL) (Haemophilus influenzae; pH 7.0): no effect | bactericidal GML concentration (E. coli (Watson strain) [5]; pH 5.0): 0.1 µg/mL | bactericidal GML concentration (E. coli (Watson strain) [5]; pH 6.0): 50 µg/mL | bactericidal GML concentration (E. coli (Watson strain) [5]; pH 7.0): > 5000 µg/mL | increase in susceptibility to GML with each unit drop in pH (E. coli (Watson strain) [5]; pH 7.0 to 5.0): 500 times | Average Bactericidal Concentration of GML (Group F Streptococcus): 20 µg/mL | Average Bactericidal Concentration of GML (Listeria monocytogenes): 50 µg/mL | Average Bactericidal Concentration of GML (Mycoplasma hominis): 1 µg/mL | reduction in CFUs between pretreatment and post-treatment swabs (oral aerobic bacteria): > 5 log | GML concentration at which growth was completely or nearly completely inhibited (Streptococcus agalactiae): ≥ 20 µg/mL | fold lower GML concentration inhibiting biofilm formation (crystal violet, absorbance 595 nm) than necessary to inhibit bacterial growth ([6]; 24 or 48 hours): 10 fold | GML concentration at which growth was completely inhibited (CFU/mL) ([6]; all three strains, 24 and 48 hours): 500 µg/mL | Average Bactericidal Concentration of GML [7]: 1 µg/mL | Average Bactericidal Concentration of GML (Gardnerella vaginalis [8]): 10 µg/mL | Average Bactericidal Concentration of GML (Fusobacterium species): 50 µg/mL | Average Bactericidal Concentration of GML (Enterobacter aerogenes): Not Susceptible | GML concentration inhibiting biofilm formation (crystal violet, absorbance 595 nm) [9]: ≤ 1.0 µg/mL | bactericidal GML concentration in the context of a biofilm (CFU/mL) [9]: 50 µg/mL | GML concentration inhibiting growth (CFU/mL) (S. aureus (strain MN8)): ≥ 100 µg/mL | GML concentration at which growth was completely or nearly completely inhibited (Gardnerella vaginalis [10]; palm or corn oil (all 3)): ≥ 20 µg/mL | GML concentration at which CFU/mL were reduced (Gardnerella vaginalis [10]; palm or corn oil (all three)): ≤ 10 µg/mL
